Measurements: patent US20260273028A1, “PEROXIDASE COMPOSITIONS CONTAINING IMPROVED ENHANCING AGENTS” (FLEN HEALTH PHARMA NV, priority 2022, published 2026)

Key:
[1] = test system: IL-6; assay: Direct neutralization of secreted IL-6 in cell culture supernatants, ELISA; format: biochemical; settings: isoleucine 0.05%; 3 h
Method: First, the effect on the secretion of these mediators by macrophages was evaluated. Secondly, the direct neutralization of already secreted mediators was evaluated. Both were measured by the state-of-the-art ELISA technique. Secondly, the direct neutralization of secreted pro-inflammatory mediator representatives IL-6, TNFa and MMP9 was measured in parallel. In brief, cell culture supernatants were collected after 48 h of macrophage differentiation and were centrifuged at 150 g for 5 min to remove cell debris. […] Treated supernatants were kept frozen until being processed for ELISA. IL-6, TNFa and MMP9 ELISA kits were purchased from BioTechne and the experiment was performed according to manufacturer's instructions. Briefly, 96-well plates were coated with capture antibodies overnight at room temperature. […] After several washing steps, the corresponding detection antibody, which is coupled to biotin, was incubated for 2 h. […] The reaction was stopped by the addition of sulphuric acid and absorbance at 450 nm was read with a plate reader. Absorbance is proportional to the concentration of analyte present in the medium, which was calculated based on a standard curve realized with recombinant IL-6, TNFa and MMP9.

[2] = test system: IL-6; assay: IL-6 secretion by THP-1-derived macrophages, ELISA; format: cell-based; settings: 24 h
Method: First, the effect on the secretion of these mediators by macrophages was evaluated. Secondly, the direct neutralization of already secreted mediators was evaluated. Both were measured by the state-of-the-art ELISA technique. First, the secretion of the pro-inflammatory mediator representatives IL-6, TNFa and MMP9 in cell culture supernatants by THP-1 (a monocytic cell line) after its differentiation into macrophages were measured. In brief, THP-1 cells were seeded at a density of 3×10^5 cells/cm^2 in a 6-well plate in the presence of 160 nM of phorbol-12-myristate-13-acetate (PMA) to induce macrophage differentiation. Differentiation was further conducted for 48 h. […] Supernatants were collected and centrifuged at 150 g for 5 min to remove cell debris and were kept at −20° C. before being processed for ELISA. IL-6, TNFa and MMP9 ELISA kits were purchased from BioTechne and the experiment was performed according to manufacturer's instructions. Briefly, 96-well plates were coated with capture antibodies overnight at room temperature. […] After several washing steps, the corresponding detection antibody, which is coupled to biotin, was incubated for 2 h. […] The reaction was stopped by the addition of sulphuric acid and absorbance at 450 nm was read with a plate reader. Absorbance is proportional to the concentration of analyte present in the medium, which was calculated based on a standard curve realized with recombinant IL-6, TNFa and MMP9.

[3] = test system: MMP9; assay: MMP9 secretion by THP-1-derived macrophages, ELISA; format: cell-based; settings: 24 h
Method: First, the effect on the secretion of these mediators by macrophages was evaluated. Secondly, the direct neutralization of already secreted mediators was evaluated. Both were measured by the state-of-the-art ELISA technique. First, the secretion of the pro-inflammatory mediator representatives IL-6, TNFa and MMP9 in cell culture supernatants by THP-1 (a monocytic cell line) after its differentiation into macrophages were measured. In brief, THP-1 cells were seeded at a density of 3×10^5 cells/cm^2 in a 6-well plate in the presence of 160 nM of phorbol-12-myristate-13-acetate (PMA) to induce macrophage differentiation. Differentiation was further conducted for 48 h. […] Supernatants were collected and centrifuged at 150 g for 5 min to remove cell debris and were kept at −20° C. before being processed for ELISA. IL-6, TNFa and MMP9 ELISA kits were purchased from BioTechne and the experiment was performed according to manufacturer's instructions. Briefly, 96-well plates were coated with capture antibodies overnight at room temperature. […] The reaction was stopped by the addition of sulphuric acid and absorbance at 450 nm was read with a plate reader. Absorbance is proportional to the concentration of analyte present in the medium, which was calculated based on a standard curve realized with recombinant IL-6, TNFa and MMP9.

[4] = test system: Candida albicans ATCC®10231™; assay: MIC determination, broth microdilution, GOX+LPO with potentiator candidate; format: cell-based; settings: C. albicans; enhancer 0.01%
Method: The minimum inhibitory concentration (MIC) is defined as the lowest concentration of an antimicrobial agent that results in a complete inhibition of microbial growth (determined via visual evaluation or absorbance measurements) after overnight incubation. This endpoint measurement is used to define the microbial susceptibility towards an antimicrobial agent. Here, the antimicrobial agent is a combination of the natural enzymes GOX+LPO.
To determine the MIC of the described combinations, a classical broth microdilution assay was used to determine the susceptibility of a series of microbes commonly detected in infected wounds, including (a) the Gram-positive bacterium Staphylococcus aureus ATCC® 6538™ (results shown below), (b) the Gram-negative bacterium Pseudomonas aeruginosa ATCC®9027™ (results shown below), (c) the yeast Candida albicans ATCC®10231™ (results shown below), and (d) the fungus Aspergillus niger ATCC®16404™ (results shown below). In brief, a […] serial dilution of the enzymatic GOX+LPO solution was prepared in a transparent, flat-bottomed 96-well test plate with final concentrations ranging from 0.005 to 0.00000977% (v/v). To each well, a fixed volume of the enzymatic substrate containing 3,3% (w/v) glucose and 0,084% (w/v) potassium iodide, as well as the microbial inoculum with an OD600 of 0.1 was added. In the event the enzyme combination was evaluated in the presence of a potentiator candidate, the latter was added together with the enzymatic substrate in a final concentration ranging from 100 to 0,00125% (v/v). For each combination evaluated, a blank (no addition of microbial inoculum) was included. Positive (inoculum only) and negative (background solution only) were included to evaluate the performance of the test and to select the enzymatic GOX+LPO concentration at which no microbial growth is detected (i.e., absorbance equal to that of the background solution only). Then, the 96-well test plate was incubated for 24 hours at 37° C. (S. aureus, P. aeruginosa and C. albicans) or 25° C. (A. niger). After incubation, the absorbance of each well was measured using a plate spectrophotometer (Spectramax ID3, Molecular Devices). For each combination evaluated, this test was repeated at least 5 times. The collected data were further analyzed in MS Excel. Mean absorbance data were visualized in a table format in which the MIC was highlighted.

[5] = target: GOX (Aspergillus niger, UniProt P13006); assay: Glucose oxidase (GOX) activity, spectrophotometric assay; format: biochemical; settings: reference = no potentiator candidate
Sequence of GOX (P13006 17-605): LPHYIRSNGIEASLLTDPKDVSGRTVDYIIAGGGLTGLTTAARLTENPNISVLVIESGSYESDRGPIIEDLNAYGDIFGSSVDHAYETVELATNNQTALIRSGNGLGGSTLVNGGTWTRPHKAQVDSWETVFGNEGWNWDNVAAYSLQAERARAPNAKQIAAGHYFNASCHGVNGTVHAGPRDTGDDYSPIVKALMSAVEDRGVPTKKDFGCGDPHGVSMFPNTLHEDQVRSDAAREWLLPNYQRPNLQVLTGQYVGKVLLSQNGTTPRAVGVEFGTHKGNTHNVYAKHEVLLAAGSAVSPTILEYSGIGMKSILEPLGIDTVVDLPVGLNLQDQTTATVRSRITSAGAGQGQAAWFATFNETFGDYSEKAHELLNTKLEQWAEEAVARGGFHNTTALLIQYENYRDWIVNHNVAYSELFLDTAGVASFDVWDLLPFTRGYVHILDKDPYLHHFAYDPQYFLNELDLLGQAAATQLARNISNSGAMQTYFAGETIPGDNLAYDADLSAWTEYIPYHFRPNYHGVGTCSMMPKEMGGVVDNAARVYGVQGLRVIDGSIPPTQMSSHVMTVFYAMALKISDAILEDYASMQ
Method: The natural enzyme GOX is an oxidoreductase that catalyses the oxidation of glucose to gluconic acid and hydrogen peroxide (H2O2) in the presence of water and air. To measure the enzymatic activity of GOX, a standard spectrophotometric assay is performed. In brief, a second oxidoreductase enzyme, peroxidase, and a chromogenic oxygen acceptor, o-dianisidine, are added to the former reaction mix (GOX+glucose+water+air) so that the formation of a coloured compound is achieved that can in turn be measured by spectrophotometry. GOX was tested in 4 different concentrations, i.e., 100, 50, 10 and 1 mg/ml. Each reaction mixture was tested in duplo. In the event GOX activity was evaluated in the presence of a potentiator candidate (=a molecule that might be able to augment the enzymatic activity of GOX), the latter was added in a low and high concentration ranging from 100 to 0.1 mg/ml. The blank consisted of the reaction mix in which the enzymes were absent. After mixing all reaction elements, absorbance was immediately measured with a plate reader (Spectramax ID3, Molecular Devices) every minute for 5 minutes at 35° C. For each combination evaluated, this test was repeated at least 2 times. Results were further analysed in MS Excel and expressed as U/g. Mean blank-corrected data±SD were plotted. Statistical significance compared to the combination without potentiator candidate (reference) was calculated using students' t-tests. Significance is achieved when the obtained p-value is lower than 0,05. Significance levels were defined as p<0.05=*; p<0.01=** and p<0.001=***.

| SMILES | additional decrease of already secreted IL-6 (direct neutralization) vs GOX+LPO (1:1) alone [1] [%] | additional decrease in IL-6 secretion by macrophages vs GOX+LPO (1:1) alone ([2]; isoleucine 0.0025%) [%] | additional decrease in IL-6 secretion by macrophages vs GOX+LPO (1:1) alone ([2]; isoleucine 0.05%) [%] | additional decrease in IL-6 secretion by macrophages vs GOX+LPO (1:1) alone ([2]; isoleucine 0.5%) [%] | additional decrease in MMP9 secretion by macrophages vs GOX+LPO (1:1) alone ([3]; isoleucine 0.0025%) [%] | additional decrease in MMP9 secretion by macrophages vs GOX+LPO (1:1) alone ([3]; isoleucine 0.05%) [%] | MIC: GOX+LPO enzyme solution needed to completely inhibit growth [4] | increase in MIC compared to reference [4] [×] | increase in MIC compared to the enhancing molecule guaiacol [4] [×] | GOX activity compared to reference ([5]; enhancer 0.1 mg/ml) | GOX activity compared to reference ([5]; enhancer 100 mg/ml) |
| --- | --- | --- | --- | --- | --- | --- | --- | --- | --- | --- | --- |
| CC[C@H](C)[C@H](N)C(=O)O [Isoleucine, isoleucine] | 29.4 | 7.6 | 20.6 | 33.6 | 12.7 | 21.5 | 0.0000391 % (v/v) | 4 | 2 | – | – |
| O=C(O)[C@@H]1CCCN1 [Proline, proline] | – | – | – | – | – | – | – | – | – | significant increase | significant increase |
